Counter-ions that a name gives are not always drawn. Like-named read-outs stand apart in the source and are kept apart here.
What was measured:
dopamine D-2 receptor = dopamine D-2 receptor (Rattus norvegicus, UniProt P61169); assay: biochemical; format: binding; settings: rat caudate, [125I]-p-aminophenylethyl spiroperidol; read-out: D-2 Ki
Protocol: Homogenized rat caudate was the source of the D-2 receptors. […] The molar affinity of the compound for the receptor binding site was calculated by the same method used for the D-1 receptor assay, assuming a competitive interaction between the compound and the radiolabeled ligand.

dopamine D-1 receptor [1] = molecular target: T1, dopamine D-1 receptor (Rattus norvegicus, UniProt P18901); settings: read-out: D-1 Ki; rat caudate, [125I]SCH-23982
Excerpt: (§1) The compounds compete with the radiolabeled ligand for occupancy of the receptors and the molar potency of each compound was quantified.
(§2) The Ki values are inversely proportional to the affinity of the compound for the receptor.

dopamine D-1 receptor [2] = settings: for Intrinsic Activity (adenylate cyclase assay): dopamine = 100, goldfish retina or rat striatum; for EC50: read-out: EC50 (agonist activity in adenylate cyclase assay), tissue from goldfish retina or rat striatum
Protocol: In order to determine agonist activity, cell-free tissue homogenates are incubated in an ionic buffer solution containing ATP and the compound being evaluated. The tissue was obtained from either goldfish retina or rat striatum.

[3] = system: striatal dopamine receptors; assay: Rotation behavior assay of in vivo activity (6-hydroxydopamine lesioned rat rotational model); settings: for ED50 s.c. (rotation behavior): injected subcutaneously
anesthetized dogs = assay: Cardiovascular pharmacology - hemodynamic studies in anesthetized dogs; format: in vivo, dog (Beagle); settings: cumulative intraaortic infusion above renal arteries; dose ranges (g/kg/min): 2A 3-10, 3 1-10, 35 1-3, 36 1-10, 37 1-30
Protocol: Male Beagle dogs were anesthetized with pentobarbital (30 mg/kg. i.v.) and maintained with i.v. infusion (Abbott/Shaw Life Care Pump, Model II/D) to maintain stable cardiovascular function. The dogs were […] with a cuffed endotracheal tube and ventilated with room air by means of a positive pressure respiratory pump. Expired respiratory CO2 was monitored with a Beckman LB-2 gas analyzer and maintained at 5% by appropriate pump adjustments. The dogs were maintained at a body temperature of 37.5°±1.0° C. with a thermostatically controlled animal table. Polyethylene catheters were placed in the abdominal aorta via the femoral and carotid arteries for blood pressure and left ventricular pressure recordings. A Swan-Ganz thermodilution catheter with a 15 cm proximal port was placed in the jugular vein for central venous and pulmonary arterial recordings and for determination of cardiac output (American Edwards Cardiac Output Computer, Model COM-1). Heart rate and electrocardiogram (ECG) recordings were made from a Lead II ECG connection. […] A calibrated electromagnetic flow probe (Carolina Medical Electronics) was positioned around the renal artery. The abdominal cavity is closed with wound clips. Recordings were made on a Grass polygraph. An additional small polyethylene catheter was inserted into a branch of the left femoral artery and the tip positioned in the aorta above the renal arteries. […] A thirty-fold dose-response-curve was administered by varying flow rate from 0.01 to 0.30 mL/minute.

dopamine D-1 receptor [4] = molecular target: T1, dopamine D-1 receptor; assay: biochemical; settings: D-1 Ki, rat caudate, [125I]SCH-23982
Excerpt: as §1, §2

dopamine D-2 receptor, sequence (P61169 whole entry): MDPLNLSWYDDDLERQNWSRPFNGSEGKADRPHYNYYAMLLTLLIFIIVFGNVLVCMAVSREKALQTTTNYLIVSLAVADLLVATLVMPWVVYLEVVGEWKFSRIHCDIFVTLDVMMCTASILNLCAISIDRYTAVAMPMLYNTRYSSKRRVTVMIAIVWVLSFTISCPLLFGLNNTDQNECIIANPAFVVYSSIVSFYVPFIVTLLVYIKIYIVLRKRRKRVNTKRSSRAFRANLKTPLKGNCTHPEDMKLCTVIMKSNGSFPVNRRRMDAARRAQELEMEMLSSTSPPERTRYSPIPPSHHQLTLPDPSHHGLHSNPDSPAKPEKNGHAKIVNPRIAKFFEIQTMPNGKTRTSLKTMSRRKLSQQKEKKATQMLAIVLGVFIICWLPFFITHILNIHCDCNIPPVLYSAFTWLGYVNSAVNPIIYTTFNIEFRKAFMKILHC
T1 sequence (P18901 whole entry): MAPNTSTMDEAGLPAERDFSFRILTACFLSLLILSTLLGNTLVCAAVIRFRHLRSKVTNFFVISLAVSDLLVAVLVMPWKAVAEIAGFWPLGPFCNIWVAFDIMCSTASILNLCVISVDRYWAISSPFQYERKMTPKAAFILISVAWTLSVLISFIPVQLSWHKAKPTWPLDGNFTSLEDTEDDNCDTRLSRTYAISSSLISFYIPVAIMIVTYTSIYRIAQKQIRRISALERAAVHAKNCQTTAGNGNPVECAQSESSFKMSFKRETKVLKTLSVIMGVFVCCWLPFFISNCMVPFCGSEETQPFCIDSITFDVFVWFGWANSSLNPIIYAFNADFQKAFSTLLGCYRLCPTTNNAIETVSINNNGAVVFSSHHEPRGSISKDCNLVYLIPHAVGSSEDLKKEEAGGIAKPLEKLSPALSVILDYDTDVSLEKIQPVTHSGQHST

Row | SMILES | Ki (dopamine D-2 receptor) | Ki (dopamine D-1 receptor [1]) | Intrinsic Activity (adenylate cyclase assay) (dopamine D-1 receptor [2]) | EC50 (dopamine D-1 receptor [2]) | ED50 s.c. (rotation behavior) [3] | ED50 oral (rotation behavior) [3] | Max Decrease MAP (mean arterial blood pressure) (anesthetized dogs) | Max Increase RBF (renal blood flow) (anesthetized dogs) | Ki (dopamine D-1 receptor [4]) | EC50 (dopamine D-1 receptor [2]; Hydrobromide)
1 | NC[C@@H]1O[C@H](CCOCc2ccccc2)Cc2c1ccc(O)c2O (relative stereo) [Example 77] | 0.5 µM | 2.3 µM | 107 | 0.093 µM |  |  |  |  |  | 
2 | CCCCCC(NC(C)=O)[C@@H]1Cc2c(ccc(O)c2O)[C@H](CN)O1 (relative stereo) [Example 162] | 0.71 µM | 0.67 µM | 107 | 0.69 µM |  |  |  |  |  | 
3 | CCCCCC(NC(C)=O)[C@@H]1Cc2c(ccc(O)c2O)[C@H](CN)O1 (relative stereo) [Example 163] | 0.83 µM | 0.79 µM | 140 | 1.45 µM |  |  |  |  |  | 
4 | CCCCCC(NC(=O)CCl)[C@@H]1Cc2c(ccc(O)c2O)[C@H](CN)O1 (relative stereo) [Example 165] | 17 µM | 1.8 µM | 105 | 0.031 µM |  |  |  |  |  | 
5 | Oc1ccc2c(c1O)C[C@H](c1ccccc1)C[C@H]2[C@H]1CCCN1 (relative stereo) [Example 181, [1,3-cis]5.6-Dihydroxy-3-phenyl-1-(2'-pyrrolidinyl)-1,2,3,4-tetrahydronaph-thalene Hydrobromide] | 4.6 µM | 0.39 µM | 65 | 0.017 µM |  |  |  |  |  | 
6 | NC[C@@H]1C[C@H](C23CC4CC(CC(C4)C2)C3)Cc2c1ccc(O)c2O (relative stereo) [Example 235] | > 10 µM | 0.55 µM | 83 | 0.3 µM |  |  |  |  |  | 
7 | C=CCNC[C@@H]1O[C@H](c2ccccc2)Cc2c1ccc(O)c2O (stereo in doubt) [Example 130] | 0.19 µM | 0.051 µM | 82 | 0.17 µM | 0.13 µmol/kg | 8 µmol/kg |  |  |  | 
8 | CC(=O)Oc1ccc2c(c1OC(C)=O)CC(c1ccccc1)C=C2CN.Cl (stereo not drawn) [Example 3, 5,6-Bis(acetoxy)-1-aminomethyl-3-phenyl-3,4-dihydronaphthalene Hydrochloride] |  |  |  |  | 0.91 µmol/kg |  | 8% | 83% |  | 
9 | CC(C)OC(=O)CCC(=O)Oc1ccc2c(c1OC(=O)CCC(=O)OC(C)C)CC(c1ccccc1)C=C2CN (stereo not drawn) [Example 24] | > 10 µM | 0.9 µM | 71 | 0.5 µM |  |  |  |  |  | 
10 | Br.NC[C@@H]1C[C@H](C2CCCCC2)Cc2c1ccc(O)c2O [Example 37, [1R,3S]1-Aminomethyl-3-cyclohexyl-5,6-dihydroxy-1,2,3,4-tetrahydronaphthalene Hydrobromide] | 10 µM |  | 56 | 0.031 µM |  |  | 39% | 48% | 0.057 µM | 
11 | NCC1c2ccc(O)c(O)c2CC(c2ccccc2)C1CCO (stereo not drawn) [Example 45, [1,2-trans]1-Aminomethyl-5,6-dihydroxy-2-(2'-hydroxy-1'-ethyl)-3-phenyl-1,2,3,4-tetrahydronaphthalene Formic Acid Salt] | > 10 µM | 4.6 µM | 62 | 0.06 µM |  |  |  |  |  | 
12 | CCC1Cc2c(ccc(O)c2O)C(CN)O1 (stereo not drawn) [Example 67] |  | 1.9 µM | 92 | 0.23 µM |  |  |  |  |  | 
13 | C[C@H](N)C1OC(c2ccccc2)Cc2c1ccc(O)c2O (stereo partly drawn) [Example 108, [1,3-cis]1-(1S-(1-Amino)ethyl)-5,6-dihydroxy-3-phenyl-3,4-dihydro-1H-2-benzopyran] | > 10 µM | 4.1 µM |  |  |  |  |  |  |  | 
14 | CCCNCC1=CC(c2ccccc2)Cc2c1ccc(O)c2O (stereo not drawn) [Example 151] | 2.5 µM | 5.8 µM | 58 | 7 µM |  |  |  |  |  | 
15 | CCCN(CCC)CC1=CC(c2ccccc2)Cc2c1ccc(O)c2O (stereo not drawn) [Example 152] | 12 µM | 59 µM |  |  |  |  |  |  |  | 
16 | CCNCC1=CC(c2ccccc2)Cc2c1ccc(O)c2O (stereo not drawn) [Example 153] | > 10 µM | 0.85 µM | 53 | 3.1 µM |  |  |  |  |  | 

Row | SMILES | Ki (dopamine D-2 receptor) | Ki (dopamine D-1 receptor [1]) | Intrinsic Activity (adenylate cyclase assay) (dopamine D-1 receptor [2]) | EC50 (dopamine D-1 receptor [2]) | ED50 s.c. (rotation behavior) [3] | ED50 oral (rotation behavior) [3] | Max Decrease MAP (mean arterial blood pressure) (anesthetized dogs) | Max Increase RBF (renal blood flow) (anesthetized dogs) | Ki (dopamine D-1 receptor [4]) | EC50 (dopamine D-1 receptor [2]; Hydrobromide)
17 | Oc1ccc2c(c1O)CC1(CCCC1)C1=C2CNCC1 [Example 204] | 1.5 µM |  | 110 | 0.048 µM | 1.1 µmol/kg | 18 µmol/kg |  |  | 0.16 µM | 
18 | Oc1ccc2c(c1O)CC1(CCCCC1)C1=C2CNCC1 [Example 205] | 1.5 µM |  | 100 | 0.068 µM | 3.4 µmol/kg |  |  |  | 0.21 µM | 
19 | Br.CN1CCC2=C(C1)c1ccc(O)c(O)c1CC2c1ccccc1 (stereo not drawn) [Example 210, 2-Methyl-5-phenyl-1,2,3,4,5,6-hexahydrobenzo[h]isoquinoline-7,8-diol Hydrobromide] | 1.3 µM |  | 98 |  | 0.005 µmol/kg | 1.6 µmol/kg |  |  | 0.047 µM | 0.052 µM
20 | CC(C)(C)CC1Cc2c(ccc(O)c2O)C(CN)O1.Cl (stereo not drawn) [Example 214, 1-Aminomethyl-3-(2,2-dimethylpropyl)-3,4-dihydro-5,6-dihydroxy-1H-2-benzopyran Hydrochloride] | 5.2 µM |  | 106 | 0.02 µM | 0.085 µmol/kg |  |  |  | 0.02 µM | 
21 | NCC1OC(CC2CCCC2)Cc2c1ccc(O)c2O (stereo not drawn) [Example 215] | 0.8 µM |  | 114 | 0.02 µM | 0.55 µmol/kg |  |  |  | 0.02 µM | 
22 | CC(C)CC1Cc2c(ccc(O)c2O)C(CN)O1 (stereo not drawn) [Example 216] | 3.7 µM |  | 114 | 0.005 µM | 0.07 µmol/kg |  |  |  | 0.003 µM | 
23 | CNCC1OC(CC(C)(C)C)Cc2c1ccc(O)c2O (stereo not drawn) [Example 217] | 1 µM |  | 108 | 0.02 µM | 0.12 µmol/kg |  |  |  | 0.03 µM | 
24 | CNCC1OC(CC2CCCC2)Cc2c1ccc(O)c2O (stereo not drawn) [Example 218] | 0.41 µM |  | 115 | 0.01 µM | 0.93 µmol/kg |  |  |  | 0.02 µM | 
25 | CN(C)CC1OC(CC(C)(C)C)Cc2c1ccc(O)c2O (stereo not drawn) [Example 220] | 3.1 µM |  | 72 | 0.4 µM | 0.52 µmol/kg |  |  |  | 0.41 µM | 
26 | NCC1OC2(CCCCCCCC2)Cc2c1ccc(O)c2O (stereo not drawn) [Example 221] | > 10 µM |  | 84 | 0.08 µM | > 3 µmol/kg |  |  |  | 0.09 µM | 
27 | NCC1=CC(C23CC4CC(CC(C4)C2)C3)Cc2c1ccc(O)c2O (stereo not drawn) [Example 231] | > 10 µM |  | 85 | 0.09 µM | > 3 µmol/kg |  |  |  | 0.3 µM | 
28 | Oc1ccc2c(c1O)CC1(CCCCCCCCC1)C1=C2CNCC1 [Example 240] | 5.2 µM |  | 70 | 0.13 µM | > 3 µmol/kg |  |  |  | 0.75 µM | 
29 | Oc1ccc2c(c1O)CC1(CCCCCCCC1)C1=C2CNCC1 [Example 241] | 2.9 µM |  | 48 | 0.4 µM | > 3 µmol/kg |  |  |  | 0.4 µM | 
30 | CN1CCC2=C(C1)c1ccc(O)c(O)c1CC2c1ccccc1 (stereo not drawn) [Example 246] | 3.2 µM | 0.19 µM | 78 | 0.22 µM | 0.54 µmol/kg |  |  |  |  | 
31 | CN1CCC2=C(C1)c1ccc(O)c(O)c1CC2c1ccccc1 (stereo not drawn) [Example 247] | 1.8 µM | 0.02 µM | 75 | 0.03 µM | 0.014 µmol/kg |  |  |  |  | 
32 | CN1CCC2=C(C1)c1ccc(O)c(O)c1CC21CCCCCC1 [Example 249] | 0.6 µM |  | 32 | 0.2 µM | 0.12 µmol/kg |  |  |  | 0.05 µM | 
